Data: patent US9084420B2, “Amide derivative, pest control agent containing the amide derivative, and pest controlling method” (Mitsui Chemicals Agro, Inc., priority 2008, dated 2015)

Tests used:
Assay type in all cases: in vivo
Spodoptera litura [1] = assay: Pesticidal test against Spodoptera litura (cabbage leaf immersion); details: 144 h, 2-stage larvae on treated cabbage leaf, 25° C., after 6 days, read-out: pesticidal rate
Description: Pesticidal Test Against Spodoptera litura A piece of a cabbage leaf was immersed for 30 seconds in a chemical solution in which a test compound had been diluted at a predetermined concentration, and air-dried, and then put into a 7 cm polyethylene cup having a filter paper laid on the bottom thereof, and 2-stage larvae of Spodoptera litura were released. They were left to stand in a thermostatic chamber at 25° C., and the numbers of the living pests and the dead pests were examined after 6 days. The test was carried out with five larvae per group in two replicates.

Plutella xylostella = assay: Pesticidal test against Plutella xylostella (cabbage leaf immersion); details: 144 h, 3-stage larvae on treated cabbage leaf, 25° C., after 6 days, read-out: pesticidal rate
Description: Pesticidal Test Against Plutella xylostella A piece of a cabbage leaf was immersed for 30 seconds in a chemical solution in which a test compound had been diluted at a predetermined concentration, and air-dried, and then put into a 7 cm polyethylene cup having a filter paper laid on the bottom thereof, and 3-stage larvae of Plutella xylostella were released. They were left to stand in a thermostatic chamber at 25° C., and the numbers of the living pests and the dead pests were examined after 6 days. The test was carried out with five larvae per group in two replicates.

Spodoptera litura [2] = assay: Pesticidal test of penetration migration against Spodoptera litura (radish seedling root immersion); details: 72 h, radish seedling root immersed 2 days, leaf fed to 2-stage larvae, 25° C., after 3 days, read-out: pesticidal rate
Description: Pesticidal Test of Penetration Migration against Spodoptera litura A root portion of a radish seedling was immersed for 2 days in a chemical solution in which a test compound had been diluted at a predetermined concentration, then the leaf was cut and put into a 7 cm polyethylene cup having a filter paper laid on the bottom thereof, and 2-stage larvae of Spodoptera litura were released. They were left to stand in a thermostatic chamber at 25° C., and the numbers of the living pests and the dead pests were examined after 3 days. The test was carried out with five larvae per group in two replicates.

Musca domestica = assay: Pesticidal test against Musca domestica (petri dish residue); details: 24 h, acetone solution dried in petri dish, female adults, 25° C., after 1 day, read-out: pesticidal rate
Description: Pesticidal Test Against Musca domestica
1 ml of an acetone solution in which a test compound had been diluted at a predetermined concentration was added dropwise to a petri dish having a diameter of 9 cm, and air-dried, and then the female adults of Musca domestica were released and the petri dish was capped. They were left to stand in a thermostatic chamber at 25° C., and the numbers of the living pests and the dead pests were examined after 1 day. The test was carried out with […] in two replicates.

CNC(=O)CCN(C(=O)c1ccccc1)c1cccc(C(=O)Nc2c(I)cc(C(F)(C(F)(F)F)C(F)(F)F)cc2C(F)(F)F)c1 [5-86, N-(3-(2-iodo-4-(perfluoropropan-2-yl)-6-(trifluoromethyl)phenylcarbamoyl)phenyl)-N-(3-(methylamino)-3-oxopropyl)benzamide]
≥ 70%: pest or weed control at 100 ppm (Spodoptera litura [1]) | pest or weed control at 100 ppm (Plutella xylostella) | pest or weed control at 1 ppm (Spodoptera litura [2]) | pest or weed control at 1000 ppm (Musca domestica)

CCOC(=O)NC(=O)CCN(C(=O)c1ccc(C#N)cc1)c1cccc(C(=O)Nc2c(Br)cc(C(F)(C(F)(F)F)C(F)(F)F)cc2C(F)(F)F)c1F [5-76, ethyl 3-(N-(3-(2-bromo-4-(perfluorophan-2-yl)-6-(trifluoromethyl)phenylcarbamoyl)-2-fluorophenyl)-4-cyanobenzamide)propanoylcarbamate]
≥ 70%: pest or weed control at 100 ppm (Spodoptera litura [1]) | pest or weed control at 100 ppm (Plutella xylostella) | pest or weed control at 1 ppm (Spodoptera litura [2]) | pest or weed control at 1000 ppm (Musca domestica)

N#Cc1ccc(C(=O)N(CCC(N)=O)c2cccc(C(=O)Nc3c(Br)cc(C(F)(C(F)(F)F)C(F)(F)F)cc3C(F)(F)F)c2F)cc1 [1-136, 3-(N-(3-amino-3-oxopropyl)-4-cyanobenzamide)-N-(2-bromo-4-(perfluoropropan-2-yl)-6-(trifluoromethyl)phenyl)-2-fluorobenzamide]
≥ 70%: pest or weed control at 100 ppm (Spodoptera litura [1]) | pest or weed control at 100 ppm (Plutella xylostella) | pest or weed control at 1 ppm (Spodoptera litura [2]) | pest or weed control at 1000 ppm (Musca domestica)

NC(=O)CCN(C(=O)c1ccccc1)c1cccc(C(=O)Nc2c(Br)cc(C(F)(C(F)(F)F)C(F)(F)F)cc2C(F)(F)F)c1F [1-171, 3-(N-(3-amino-3-oxopropyl)benzamide)-N-(2-bromo-4-(perfluoropropan-2-yl)-6-(trifluoromethyl)phenyl)-2-fluorobenzamide]
≥ 70%: pest or weed control at 100 ppm (Spodoptera litura [1]) | pest or weed control at 100 ppm (Plutella xylostella) | pest or weed control at 1 ppm (Spodoptera litura [2])
